Laboratory results as given in article PMC7222207, “Characterization of a CholesteroNitrone (ISQ-201), a Novel Drug Candidate for the Treatment of Ischemic Stroke” (Antioxidants, 2020).

System: transient forebrain ischemia, cortex and hippocampal CA1
Experiment: Global cerebral ischemia (4VO), dose-response curve of neuroprotection
Type: in vivo, male Wistar rats
Settings: for EC50 of neuroprotection from dose-response curve: 5 days of reperfusion
Method: Transient forebrain ischemia was induced in adult male Wistar rats (10–12 weeks, Charles River) by the standard four-vessel occlusion model (4VO) described previously. Briefly, both vertebral arteries were irreversibly occluded by electrocoagulation under anesthesia, with a mixture of atropine, ketamine, and diazepam (0.25, 62.5, and 5 mg/kg, respectively) delivered through intraperitoneal injection. After 24 h, ischemia was induced by carotid occlusion with atraumatic clips, for 15 min, and then the clips were removed from the carotid arteries to allow reperfusion. Body temperature was maintained at 37 °C during the surgical procedure. The animals were studied after 5 days of reperfusion (R5d) after which they were sacrificed. Sham control animals were prepared in the same way, without carotid occlusion. We performed a power analysis (http://www.biomath.info/power/ttest.htm) to determine the sample size. Significance level and statistical power were set at 0.05 and 0.8 (80%), respectively, which afforded a sample size of […] subjects per group. The treatments were administered with concealed allocation, and in randomized order, according to a computer-generated randomization program. […]
Figure 2 Dose-response curve of ISQ-201. Ischemic animals were treated with a vehicle or ISQ-201 (range 0.01–0.1 mg/kg) by an intravenous injection, at the onset of reperfusion after global cerebral ischemia, and ISQ-201 effect was evaluated by assessing the neuronal death at 5 days of reperfusion (R5d). […] Fluoro-Jade-positive dead neurons were visualized by fluorescence microscopy (in green) in the hippocampal CA1 (CA1) and cortical (C) regions (images), and counted, as described in Materials and Methods (bar graph). (b) Brain sections as in (a) were used for apoptosis detection by TUNEL assay after fixation, and were visualized by fluorescence microscopy (in green) in the CA1 and C regions (images). TUNEL-positive cells were counted in the CA1 and C regions, as described in the Materials and Methods (bar graph). […]

CC(C)[C@H]1CC[C@H]2[C@@H]3CCC4=C/C(=[N+](\C)[O-])CC[C@]4(C)[C@H]3CC[C@]12C [ISQ-201] was tested, and the “EC50 of neuroprotection from dose-response curve” value (cortex, iv 0.01–0.1 mg/kg at reperfusion onset) was 0.015 mg/kg, the “EC50 of neuroprotection from dose-response curve” value (hippocampal CA1, iv 0.01–0.1 mg/kg at reperfusion onset) was 0.025 mg/kg and the “most effective dose in decreasing neuronal death and apoptosis” value (iv, doses 0.01–0.1 mg/kg, after 5 days of reperfusion) was 0.05 mg/kg.
